According to patent US20230338316A1, “ABBAPOLINS AS INHIBITORS AND DEGRADERS OF POLO-LIKE KINASES” (UNIVERSITY OF SOUTH CAROLINA, priority 2022, published 2023):

What was measured:
[1] = Pharmacokinetics after oral gavage; format: in vivo, swiss webster mice
Protocol: FIG. 3 graphically illustrates pharmacokinetics of SCCP ID No. 6359 in swiss webster mice at a dosage of 50 mg/kg.
These reasonable PK values of the lead abbapolin compounds tested in vivo are promising and indicate optimization will lead to further improvements.

PLK1 [2] = target: T1, PLK1 (Homo sapiens, UniProt P53350); test: PLK1 degradation in HeLa cells; format: cell-based; design: endogenous in cells; conditions: HeLa cell line, 24, 48 and 72 hours
T1 sequence (P53350 whole entry): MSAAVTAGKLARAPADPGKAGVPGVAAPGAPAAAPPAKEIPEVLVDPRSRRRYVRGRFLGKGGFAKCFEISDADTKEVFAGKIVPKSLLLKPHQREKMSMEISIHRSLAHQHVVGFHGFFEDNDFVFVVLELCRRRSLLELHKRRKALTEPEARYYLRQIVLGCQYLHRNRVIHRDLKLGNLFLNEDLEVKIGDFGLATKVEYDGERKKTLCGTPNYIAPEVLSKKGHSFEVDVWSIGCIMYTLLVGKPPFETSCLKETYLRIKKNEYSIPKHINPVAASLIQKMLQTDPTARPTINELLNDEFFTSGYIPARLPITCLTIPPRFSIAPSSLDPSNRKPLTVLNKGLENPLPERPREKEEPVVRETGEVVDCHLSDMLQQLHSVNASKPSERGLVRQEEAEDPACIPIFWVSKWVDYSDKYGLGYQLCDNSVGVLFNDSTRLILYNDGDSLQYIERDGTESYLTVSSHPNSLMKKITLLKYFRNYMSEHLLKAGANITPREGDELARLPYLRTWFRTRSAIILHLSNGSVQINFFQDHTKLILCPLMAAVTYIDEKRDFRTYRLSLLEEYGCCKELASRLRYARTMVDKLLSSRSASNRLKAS
Protocol: For example, PC3 cells were treated with varying dosages of abbapolin 6369, and percent of PLK1 degradation was measured at 24 hours (FIGS. 8A-8B). HeLa cells were treated with 25 μM abbapolin 6369, and time points shown in the assay were 24 hours, 48 hours, and 72 hours (FIGS. 9A-9B). PC3 cells were treated with varying dosages of abbapolin 6329, and percent of PLK1 degradation was measured at 24 hours (FIGS. […]). HeLa cells were treated with varying dosages of abbapolin 6329, and time points shown in the assay were 24 hours, 48 hours, and 72 hours (FIGS. 11A-11B).

Solubility in PBS = format: physicochemical; conditions: expressed as IP dose
[3] = test system: HeLa cervical cancer cells; test: MTT cell viability assay, HeLa; format: cell-based; conditions: p53 MT, PTEN WT
From the text: HeLa cervical cancer cells were obtained from ATCC (Manassas, VA). Histone H2B GFP-labeled HeLa cells (HeLa-H2B-GFP) were kindly provided by Dr. Geoffrey Wahl (Gene Expression Laboratory, Salk Institute), and were confirmed as >95% GFP positive by FACS (data not shown) but were not otherwise authenticated. Cells were maintained in DMEM (Invitrogen™, Carlsebad, CA) supplemented with 10% FBS or Corning® Nu-serum™ (BD™ Biosciences, Franklin Lakes, NJ) and 1% penicillin/streptomycin (Invitrogen™) in a humidified incubator and 5% CO2 at 37° C.
(§1) Exponentially growing cells were plated in 96-well dishes. Dose response curves were used to treat cells for 72 hours with inhibitors. Following the three-day treatment, cell viability was measured using the MTT (3-(4,5-dimethylthiazol-2-yl)-2,5-diphenyltetrazolium bromide) colorimetric assay. Cells were incubated for 3 hours with MTT allowing viable cells to metabolize the tetrazolium dye to a purple colored solution. Absorbance measurements (595 nm) were quantified using a DTX 880 plate reader and IC50 values were generated for FLIPs.

MOLT-4 = test: Single dose cell viability assay, MOLT-4; format: cell-based; conditions: MOLT-4 (Leukemia), single dose 10 μM
Protocol: (§2) Lead abbapolin compounds were tested in multiple cancer cell lines, including non-small cell lung cancer (NSCLC) cells, melanoma cells, colon cancer cells, central nervous system (CNS) cancer cells, prostate cancer cells, renal cancer cells, and breast cancer cells. Each of these cancer cells lines were sensitive to the lead abbapolin compounds in a cell viability assay, including 6184 (Table 3), 6277 (Table 4), 6279 (Table 5), 6355 (Table 6), 6359 (Table 7), 6369 (Table 8), and 6421 (Table 9).

HOP-92 = test: Single dose cell viability assay, HOP-92; format: cell-based; conditions: HOP-92 (NSCLC), single dose 10 μM
Protocol: as §2

[4] = Tolerability in the PC3 xenograft study; format: in vivo, athymic nude mice
Protocol: The efficacy of promising abbapolin compounds were tested in multiple cancer cell lines. […] To do so, athymic nude mice were injected in their flanks with 2.7×10^6 PC3 prostate cancer cells. After the tumors established at 13 days, 5-8 mice per group were treated with 6359 and 6369 daily for 5 days (M-F) for a total of 15 days. […] This is in agreement with the PLK1 degradation in the xenograft tumor.

[5] = test system: SH-SY5Y neuroblastoma cells overexpressing PLK1; test: Cell viability assay in neuroblastoma cells; format: cell-based
Protocol: (§3) Abbapolin compounds activity was evaluated in neuroblastoma cells. […] Further, abbapolins induced PLK1 degradation in SH-SY5Y cells (FIG. 14-16).

[6] = test system: PC3 prostate cancer cells; test: MTT cell viability assay, PC3; format: cell-based; conditions: MTT, 72 hours
Protocol: PC3 prostate cancer cells were maintained in DMEM (Invitrogen™, Carlsebad, CA) supplemented with 10% FBS or Corning® Nu-serum™(BD™ Biosciences, Franklin Lakes, NJ) and 1% penicillin/streptomycin (Invitrogen™) in a humidified incubator and 5% CO2 at 37° C.
as §1

PLK1 [7] = target: T1, PLK1; test: Cellular thermal shift assay (CETSA); format: cell-based; design: endogenous in cells; host or cells: PC3 prostate cancer cells
Protocol: Cellular thermal shift assay (CETSA) was performed with PC3 cells cultured in RPMI medium supplemented with 10% FBS. For an initial determination of the melting profile of PLK1 AND PLK3, cells dispensed into 96-well PCR plates in the above medium (6000 cells/well in 50 μL) were subjected to temperature gradient (38-60° C.) for 10 min. […] Centrifugation was performed at 14000 rpm to sediment the denatured protein content. Supernatant was collected and subjected to SDS-PAGE, and immunodetection was performed using anti-PLK1 and anti-PLK3 antibodies. PLK1 and PLK3 bands were quantified on a LI-COR C-Digit Blot Scanner, and Tagg and Tagg values were calculated for both proteins. In subsequent experiments, cells were treated at increasing doses (3.0, 1.0, 0.3, 0.1, 0.03 μM) of inhibitors together with DMSO control, for 2 h. Cells were then subjected to heat shock at Tagg for 10 min, and unstable protein was removed by centrifugation step. Following immuno-blotting, bands of stable PLK1 and PLK3 were quantified, normalized to loading control and plotted using GraphPad Prism software. EC50 values for inhibitors were calculated. […] The EC50 of the peptides were determined from the curve fit of the dose response.

NCI-H522 = test: Single dose cell viability assay, NCI-H522; format: cell-based; conditions: NCI-H522 (NSCLC), single dose 10 μM
Protocol: as §2

CCRF-CEM = test: Single dose cell viability assay, CCRF-CEM; format: cell-based; conditions: CCRF-CEM (Leukemia), single dose 10 μM
Protocol: as §2

PLK1 [8] = target: T1, PLK1; test: PLK1 degradation in SH-SY5Y cells; format: cell-based; design: endogenous in cells
Protocol: as §3

HL-60(TB) = test: Single dose cell viability assay, HL-60(TB); format: cell-based; conditions: HL-60(TB) (Leukemia), single dose 10 μM
Protocol: as §2

UO-31 = test: Single dose cell viability assay, UO-31; format: cell-based; conditions: UO-31 (Renal), single dose 10 μM
Protocol: as §2

[9] = 6359 100 mg/kg oral, 6369 40 mg/kg IP, 15 days

In the case of “3-(4-octylbenzamido)phenyl phosphate [compound 6369]”, the blood levels ([1]; 50 mg/kg by oral gavage) is reported as “measurable blood levels”, the “oral absorption / PK” value ([1]; mouse, in vivo, po) is reported as “low oral absorption” and the PLK1 degradation (PLK1 [2]) is reported as “degradation of PLK1”. For the same substance, the “limit of solubility in PBS” value (Solubility in PBS) was 40 mg/kg, the IC50 [3] was 17.5 ± 2.9 µM and the “Cells Remaining (%)” value (MOLT-4) was 58.19%. The “Cells Remaining (%)” value (HOP-92) was 43.19%, the body weight [4, 9] was “no loss of body weight” and the tolerability / toxicity [4, 9] was “well tolerated”. For the same substance, the “change in liver, kidney, and prostate weight” value ([4]; P>0.05) was “non-significant”, the IC50 [5] was 232 ± 55 µM and the IC50 [6] was 2.3 ± 0.9 µM. For the same substance, the EC50 (PLK1 [7]) was 0.15 µM, the “Cells Remaining (%)” value (NCI-H522) was 33.06% and the “Cells Remaining (%)” value (CCRF-CEM) was 24.97%. For the same substance, the PLK1 degradation (PLK1 [8]) was “degradation of PLK1”, the “Cells Remaining (%)” value (HL-60(TB)) was 54.82% and the “Cells Remaining (%)” value (UO-31) was 46.64%.
